# Reference: US9656991B2, “Inhibitors of glutaminyl cyclase” (PROBIODRUG AG, priority 2007, dated 2017)
# Target: glutaminyl cyclase (QC) (Homo sapiens (Human), UniProt Q16769)
# Settings: QC inhibition, 30° C.
# Method: All measurements were performed with a BioAssay Reader HTS-7000Plus for microplates (Perkin Elmer) at 30° C. QC activity was evaluated fluorometrically using H-Gln-βNA. The samples consisted of 0.2 mM fluorogenic substrate, 0.25 U pyroglutamyl aminopeptidase (Unizyme, Hørsholm, Denmark) in 0.2 M Tris/HCl, pH 8.0 containing 20 mM EDTA and an appropriately diluted aliquot of QC in a final volume of 250 μl. Excitation/emission wavelengths were 320/410 nm. The assay reactions were initiated by addition of glutaminyl cyclase. QC activity was determined from a standard curve of β-naphthylamine under assay conditions. One unit is defined as the amount of QC catalyzing the formation of 1 μmol pGlu-βNA from H-Gln-βNA per minute under the described conditions.
# In a second fluorometric assay, QC was activity determined using H-Gln-AMC as substrate. Reactions were carried out at 30° C. utilizing the NOVOStar reader for microplates (BMG labtechnologies). The samples consisted of varying concentrations of the fluorogenic substrate, 0.1 U pyroglutamyl aminopeptidase (Qiagen) in 0.05 M Tris/HCl, pH 8.0 containing 5 mM EDTA and an appropriately diluted aliquot of QC in a final volume of 250 μl. Excitation/emission wavelengths were 380/460 nm. The assay reactions were initiated by addition of glutaminyl cyclase. […] The kinetic data were evaluated using GraFit software.
# Samples consisted of the respective QC substrate, 0.3 mM NADH, 14 mM α-Ketoglutaric acid and 30 U/ml glutamate dehydrogenase in a final volume of 250 μl. […] All samples were measured at 30° C., using either the [sequence]luor Plus or the Sunrise (both from TECAN) reader for microplates. Kinetic data was evaluated using GraFit software.
# For inhibitor testing, the sample composition was the same as described above, except of the putative inhibitory compound added. For a rapid test of QC-inhibition, samples contained 4 mM of the respective inhibitor and a substrate concentration at 1 KM. For detailed investigations of the inhibition and determination of Ki-values, influence of the inhibitor on the auxiliary enzymes was investigated first. […] The inhibitory constant was evaluated by fitting the set of progress curves to the general equation for competitive inhibition using GraFit software.
# Sequence of glutaminyl cyclase (QC) (Q16769 29-361): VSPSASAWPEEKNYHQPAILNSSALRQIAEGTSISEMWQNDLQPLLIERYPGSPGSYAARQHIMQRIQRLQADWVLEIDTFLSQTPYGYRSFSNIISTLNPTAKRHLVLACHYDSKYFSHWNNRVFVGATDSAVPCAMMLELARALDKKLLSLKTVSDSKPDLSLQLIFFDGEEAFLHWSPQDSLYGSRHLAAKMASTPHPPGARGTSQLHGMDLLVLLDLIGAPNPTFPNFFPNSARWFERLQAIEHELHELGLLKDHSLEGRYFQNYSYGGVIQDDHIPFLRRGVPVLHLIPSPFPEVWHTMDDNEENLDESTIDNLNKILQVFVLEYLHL
row,SMILES,IC50 [µM]
1,"CN(Cc1ccc(F)cc1)C(=S)Nc1ccc2[nH]cnc2c1 [Example 65, 1-(4-fluorobenzyl)-3-(1H-benzo[d]imidazol-5-yl)-1-methylthiourea]",404
2,"Fc1ccc(C2CCCN2C(=S)Nc2ccc3[nH]cnc3c2)cc1 (stereo not drawn) [Example 66, N-(1H-benzo[d]imidazol-5-yl)-2-(4-fluorophenyl)pyrrolidine-1-carbo-thioamide]",128
3,"S=C(Nc1ccc2[nH]cnc2c1)N1CCCC1 [Example 67, N-(1H-benzo[d]imidazol-5-yl)pyrrolidine-1-carbothioamide]",258

# Now from value to compound:
row,IC50 [µM],SMILES
1,323,"Fc1ccc(N2CCN(C(=S)Nc3ccc4[nH]cnc4c3)CC2)cc1 [Example 70, N-(1H-benzo[d]imidazol-5-yl)-4-(4-fluorophenyl)piperazine-1-carbo-thioamide]"
2,169,"S=C(Nc1ccc2[nH]cnc2c1)N1CCOCC1 [Example 68, N-(1H-benzo[d]imidazol-5-yl)morpholine-4-carbothioamide]"
3,172,"S=C(Nc1ccc2[nH]cnc2c1)N1CCCCC1 [Example 69, N-(1H-benzo[d]imidazol-5-yl)piperidine-1-carbothioamide]"
